The source of these data is patent US20080234262A1 (Wyeth, priority 2007, published 2008).

One assay concerns prostate line LNCap. Description: In vitro cell culture growth assay (MTS), LNCap.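 Note: viable cell density read by absorbance at 490 nm, growth expressed as percent of vehicle-treated cells on the same plate.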 The assay is classed as cell-based, human. The conditions noted are these: LNCap cells, three days after drug treatment.
A further assay concerns breast line MDA468. Nature of the assay: In vitro cell culture growth assay (MTS), MDA468. In kind it is cell-based, human. As to conditions: MDA468 cells, three days after drug treatment. In outline: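 Growth measured as percent of same-plate vehicle control by MTS metabolic dye conversion (A490). Breast MDA468 and prostate LNCap cells, plated a day ahead, were exposed to compounds for 3 days.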

For a further assay, the target named is PI3K (Homo sapiens, UniProt P42336). Nature of the assay: Fluorescence polarization assay for PI3K.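 Note: PI3K kinase reaction on PIP2 with ATP, 30-60 min, product sensed by GST-GRP with red probe in fluorescence polarization (mP), controls without enzyme and at zero time.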 In kind it is biochemical. The conditions noted are these: PI3Kα; read-out: PI3Kα IC50. In general terms: Fluorescence polarisation rises when a labelled molecule tumbles more slowly, as on binding a larger partner.
PI3K, sequence (P42336 whole entry): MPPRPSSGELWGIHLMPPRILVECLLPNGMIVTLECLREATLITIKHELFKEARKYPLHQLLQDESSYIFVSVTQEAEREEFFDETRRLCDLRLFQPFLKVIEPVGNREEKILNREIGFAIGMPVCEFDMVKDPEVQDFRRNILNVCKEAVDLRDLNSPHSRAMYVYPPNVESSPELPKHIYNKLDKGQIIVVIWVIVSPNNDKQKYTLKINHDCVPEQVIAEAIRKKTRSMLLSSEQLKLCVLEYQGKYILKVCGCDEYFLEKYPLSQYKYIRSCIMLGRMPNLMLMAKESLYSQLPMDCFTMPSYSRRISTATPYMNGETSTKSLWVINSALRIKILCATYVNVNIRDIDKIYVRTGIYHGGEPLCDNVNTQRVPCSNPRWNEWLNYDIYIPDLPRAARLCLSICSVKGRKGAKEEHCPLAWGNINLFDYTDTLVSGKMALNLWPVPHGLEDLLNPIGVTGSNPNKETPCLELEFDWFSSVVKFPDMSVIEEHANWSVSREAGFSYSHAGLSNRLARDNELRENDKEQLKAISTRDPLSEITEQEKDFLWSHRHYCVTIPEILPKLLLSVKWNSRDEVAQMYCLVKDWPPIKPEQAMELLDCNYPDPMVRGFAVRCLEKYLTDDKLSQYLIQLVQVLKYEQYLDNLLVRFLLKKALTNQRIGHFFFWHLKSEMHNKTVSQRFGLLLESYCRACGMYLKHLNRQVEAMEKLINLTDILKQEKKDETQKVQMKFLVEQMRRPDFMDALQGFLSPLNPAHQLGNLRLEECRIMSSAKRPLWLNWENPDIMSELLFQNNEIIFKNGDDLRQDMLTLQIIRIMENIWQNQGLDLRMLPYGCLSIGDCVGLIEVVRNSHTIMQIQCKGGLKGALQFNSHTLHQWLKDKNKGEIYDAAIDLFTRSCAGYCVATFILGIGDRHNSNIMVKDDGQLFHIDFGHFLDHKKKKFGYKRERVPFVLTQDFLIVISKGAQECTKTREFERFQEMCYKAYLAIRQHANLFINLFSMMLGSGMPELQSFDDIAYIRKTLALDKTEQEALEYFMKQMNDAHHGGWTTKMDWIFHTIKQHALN
PI3K, sequence (P27986 whole entry partner): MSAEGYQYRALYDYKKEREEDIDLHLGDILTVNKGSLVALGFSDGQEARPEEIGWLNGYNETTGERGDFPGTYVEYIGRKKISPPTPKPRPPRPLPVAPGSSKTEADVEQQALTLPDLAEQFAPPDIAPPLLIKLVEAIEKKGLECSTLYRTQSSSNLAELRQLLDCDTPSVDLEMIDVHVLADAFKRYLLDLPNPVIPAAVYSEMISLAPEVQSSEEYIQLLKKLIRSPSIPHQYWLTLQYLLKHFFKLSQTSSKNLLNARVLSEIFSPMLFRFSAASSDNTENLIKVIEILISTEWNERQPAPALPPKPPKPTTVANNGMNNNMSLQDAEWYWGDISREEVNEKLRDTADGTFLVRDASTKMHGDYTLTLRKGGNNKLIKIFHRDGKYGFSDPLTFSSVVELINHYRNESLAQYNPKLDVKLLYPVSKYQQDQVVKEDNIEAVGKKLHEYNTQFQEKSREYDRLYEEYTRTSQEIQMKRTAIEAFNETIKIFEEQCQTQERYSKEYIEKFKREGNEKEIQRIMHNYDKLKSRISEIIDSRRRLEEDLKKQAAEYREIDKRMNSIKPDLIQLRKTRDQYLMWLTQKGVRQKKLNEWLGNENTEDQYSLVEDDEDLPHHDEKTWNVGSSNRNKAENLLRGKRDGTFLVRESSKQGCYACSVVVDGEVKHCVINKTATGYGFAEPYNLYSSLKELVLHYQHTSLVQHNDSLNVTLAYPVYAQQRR

A word on the IC50: it is the point on the concentration scale where inhibition reaches its midpoint. For `COC(=O)N1CCC(n2ncc3c(N4CCOCC4)nc(-c4ccc(NC(=O)OCCCO)cc4)nc32)CC1` [Compound 909, methyl 4-[6-(4-{[(3-hydroxypropoxy)carbonyl]amino}phenyl)-4-morpholin-4-yl-1H-pyrazolo[3,4-d]pyrimidin-1-yl]piperidine-1-carboxylate], the IC50 in the assay on prostate line LNCap (Homo sapiens, LNCaP, 72 h) was 1200 nM; with breast line MDA468 (Homo sapiens, 72 h) it was greater than 60000 nM; at PI3K it was 7030 nM.

Turning to `Oc1cccc(-c2nc(N3CCOCC3)c3cnn(C4CCN(Cc5ccc[nH]5)CC4)c3n2)c1` [Example 14], the IC50 in the assay with prostate line LNCap (Homo sapiens, LNCaP, 72 h) worked out at 110 nM; in the assay on breast line MDA468 (Homo sapiens, 72 h), 600 nM; on PI3K, 20 nM.

As to `COc1ccc(CN2CCC(n3ncc4c(N5CCOCC5)nc(-c5cccc(O)c5)nc43)CC2)cc1O` [Example 20], the IC50 in the assay with prostate line LNCap (Homo sapiens, LNCaP, 72 h) was found to be 130 nM; with breast line MDA468 (Homo sapiens, 72 h), 700 nM; at PI3K, 21 nM.

For the compound `O=C(O)CCC(=O)Nc1ccc(-c2nc(N3CCOCC3)c3cnn(C4CCN(Cc5ccccc5)CC4)c3n2)cc1` [Compound 81], the IC50 in the assay with prostate line LNCap (Homo sapiens, LNCaP, 72 h) was found to be 60000 nM; with breast line MDA468 (Homo sapiens, 72 h), 45000 nM; at PI3K, 3680 nM.

On to `CNC(=O)Nc1ccc(-c2nc(N3CCOCC3)c3cnn(C4CCN(Cc5ccc(F)cc5)CC4)c3n2)cc1` [Compound 671, 1-(4-{1-[1-(4-fluorobenzyl)piperidin-4-yl]-4-morpholin-4-yl-1H-pyrazolo[3,4-d]pyrimidin-6-yl}phenyl)-3-methylurea], for which the values for the half-inhibitory concentration (IC50) in the assay with prostate line LNCap, in the assay with breast line MDA468 and on PI3K were less than 27 nM, 210 nM and 34 nM, respectively.

Take `CNC(=O)Nc1ccc(-c2nc(N3CCOCC3)c3cnn(C4CCN(C(=O)c5cccnc5)CC4)c3n2)cn1` [Compound 480, 1-methyl-3-(5-{4-morpholin-4-yl-1-[1-(pyridin-3-ylcarbonyl)piperidin-4-yl]-1H-pyrazolo[3,4-d]pyrimidin-6-yl}pyridin-2-yl)urea]: the half-maximal inhibitory concentration (IC50) in the assay with prostate line LNCap (Homo sapiens, LNCaP, 72 h) was 800 nM; in the assay with breast line MDA468 (Homo sapiens, 72 h), 1200 nM; at PI3K, 42 nM.

In the case of `O=C(Nc1ccc(-c2nc(N3CCOCC3)c3cnn(C4CCN(Cc5cccnc5)CC4)c3n2)cc1)Nc1cccnc1` [Compound 559, 1-(4-{4-morpholin-4-yl-1-[1-(pyridin-3-ylmethyl)piperidin-4-yl]-1H-pyrazolo[3,4-d]pyrimidin-6-yl}phenyl)-3-pyridin-3-ylurea], the 50% inhibitory concentration (IC50) was less than 27 nM in the assay on prostate line LNCap (Homo sapiens, LNCaP, 72 h); less than 27 nM with breast line MDA468 (Homo sapiens, 72 h); 20 nM at PI3K.

Consider `O=C(Nc1ccc(-c2nc(N3CCOCC3)c3cnn(C4CCN(Cc5cccnc5)CC4)c3n2)cc1)Nc1ccccn1` [Example 341, 1-(4-{4-morpholin-4-yl-1-[1-(pyridin-3-ylmethyl)piperidin-4-yl]-1H-pyrazolo[3,4-d]pyrimidin-6-yl}phenyl)-3-pyridin-2-ylurea], for which the IC50 in the assay on prostate line LNCap (Homo sapiens, LNCaP, 72 h) is 330 nM; in the assay on breast line MDA468 (Homo sapiens, 72 h), 1800 nM; at PI3K, 91 nM.

In the case of `CNC(=O)Nc1ccc(-c2nc(N3CCOCC3)c3cnn(C4CCN(Cc5ccccc5C)CC4)c3n2)cc1` [Compound 673, 1-methyl-3-(4-{1-[1-(2-methylbenzyl)piperidin-4-yl]-4-morpholin-4-yl-1H-pyrazolo[3,4-d]pyrimidin-6-yl}phenyl)urea], the IC50 in the assay with prostate line LNCap is 40 nM; in the assay on breast line MDA468, 180 nM; on PI3K, 50 nM.

For the compound `NCCC(=O)Nc1ccc(-c2nc(N3CCOCC3)c3cn[nH]c3n2)cc1` [Compound 283], the IC50 in the assay with prostate line LNCap (Homo sapiens, LNCaP, 72 h) turned out to be 1500 nM; in the assay with breast line MDA468 (Homo sapiens, 72 h), 13000 nM; on PI3K, 203 nM.

As to `Cc1ccc(C(=O)N2CCC(n3ncc4c(N5CCOCC5)nc(-c5ccc6[nH]ccc6c5)nc43)CC2)cc1` [Example 53], the IC50 is 220 nM with prostate line LNCap (Homo sapiens, LNCaP, 72 h); 3900 nM with breast line MDA468 (Homo sapiens, 72 h); 846 nM on PI3K.

Regarding `CNC(=O)Nc1ccc(-c2nc(N3CCOCC3)c3cnn(C4CCN(C(=O)c5cccnc5)CC4)c3n2)cn1` [Compound 725, 1-methyl-3-(5-{4-morpholin-4-yl-1-[1-(pyridin-3-ylcarbonyl)piperidin-4-yl]-1H-pyrazolo[3,4-d]pyrimidin-6-yl}pyridin-2-yl)urea], the concentration for half-maximal inhibition (IC50) is 800 nM in the assay with prostate line LNCap, 1150 nM in the assay with breast line MDA468 and 42 nM on PI3K.
